Test results taken from the supplement of paper PMC10307832.

Assays:
Assay in all cases: relative viability (nuclei count vs DMSO), 5 days (fraction); higher = more cells survive
LCLC-103H = test system: LCLC-103H
Summary of the method: (§1)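 Each reported value is a median over duplicate plates. It expresses relative viability: treated-well nuclei count divided by vehicle-well nuclei count. Lung cancer cell lines in 1536-well plates were dosed by pin tool a day after seeding, alone with one drug or with a fixed anchor-drug dose plus five library-drug doses (not always all listed) in √10 steps, and nuclei were counted after 5 days.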

LK-2 = test system: LK-2
Summary of the method: as §1

RERF-LC-KJ = test system: RERF-LC-KJ
Summary of the method: as §1

NCI-H661 = test system: NCI-H661
Summary of the method: as §1

NCI-H1666 = test system: NCI-H1666
Summary of the method: as §1

PC-14 = test system: PC-14
Summary of the method: as §1

NCI-H727 = test system: NCI-H727
Summary of the method: as §1

NCI-H2170 = test system: NCI-H2170
Summary of the method: as §1

NCI-H1437 = test system: NCI-H1437
Summary of the method: as §1

NCI-H1355 = test system: NCI-H1355
Summary of the method: as §1

ChaGo-K-1 = test system: ChaGo-K-1
Summary of the method: as §1

HOP-62 = test system: HOP-62
Summary of the method: as §1

NCI-H2126 = test system: NCI-H2126
Summary of the method: as §1

BEN = test system: BEN
Summary of the method: as §1

NCI-H1944 = test system: NCI-H1944
Summary of the method: as §1

NCI-H647 = test system: NCI-H647
Summary of the method: as §1

LOU-NH91 = test system: LOU-NH91
Summary of the method: as §1

SK-MES-1 = test system: SK-MES-1
Summary of the method: as §1

NCI-H1993 = test system: NCI-H1993
Summary of the method: as §1

EKVX = test system: EKVX
Summary of the method: as §1

LXF-289 = test system: LXF-289
Summary of the method: as §1

NCI-H441 = test system: NCI-H441
Summary of the method: as §1

HCC-827 = test system: HCC-827
Summary of the method: as §1

SMILES: Cc1cn(-c2cc(NC(=O)c3ccc(C)c(Nc4nccc(-c5cccnc5)n4)c3)cc(C(F)(F)F)c2)cn1 [Nilotinib] + C[C@@H](Oc1cc(-c2cnn(C3CCNCC3)c2)cnc1N)c1c(Cl)ccc(F)c1Cl [Crizotinib] (partner 1 µM)
- relative viability (LCLC-103H; first compound 0.003162 µM): 1.07
- relative viability (LCLC-103H; first compound 0.03162 µM): 0.945
- relative viability (LCLC-103H; first compound 0.1 µM): 1.08
- relative viability (LK-2; first compound 0.001 µM): 0.244
- relative viability (LK-2; first compound 0.003162 µM): 0.276
- relative viability (LK-2; first compound 0.01 µM): 0.206
- relative viability (LK-2; first compound 0.03162 µM): 0.251
- relative viability (LK-2; first compound 0.1 µM): 0.241
- relative viability (RERF-LC-KJ; first compound 0.001 µM): 0.872
- relative viability (RERF-LC-KJ; first compound 0.003162 µM): 0.891
- relative viability (RERF-LC-KJ; first compound 0.01 µM): 0.917
- relative viability (RERF-LC-KJ; first compound 0.03162 µM): 0.814
- relative viability (RERF-LC-KJ; first compound 0.1 µM): 0.867
- relative viability (NCI-H661; first compound 0.001 µM): 0.879
- relative viability (NCI-H661; first compound 0.003162 µM): 1.12
- relative viability (NCI-H661; first compound 0.01 µM): 1.03
- relative viability (NCI-H661; first compound 0.03162 µM): 0.945
- relative viability (NCI-H661; first compound 0.1 µM): 0.93
- relative viability (NCI-H1666; first compound 0.001 µM): 0.826
- relative viability (NCI-H1666; first compound 0.003162 µM): 0.983
- relative viability (NCI-H1666; first compound 0.01 µM): 0.964
- relative viability (NCI-H1666; first compound 0.03162 µM): 0.936
- relative viability (NCI-H1666; first compound 0.1 µM): 1.11
- relative viability (PC-14; first compound 0.001 µM): 0.871
- relative viability (PC-14; first compound 0.003162 µM): 0.941
- relative viability (PC-14; first compound 0.01 µM): 1.11
- relative viability (PC-14; first compound 0.03162 µM): 0.861
- relative viability (PC-14; first compound 0.1 µM): 0.945
- relative viability (NCI-H727; first compound 0.001 µM): 0.865
- relative viability (NCI-H727; first compound 0.01 µM): 1.05
- relative viability (NCI-H727; first compound 0.03162 µM): 0.575
- relative viability (NCI-H727; first compound 0.1 µM): 0.483
- relative viability (NCI-H2170; first compound 0.001 µM): 1.12
- relative viability (NCI-H2170; first compound 0.003162 µM): 1.21
- relative viability (NCI-H2170; first compound 0.01 µM): 1.61
- relative viability (NCI-H2170; first compound 0.03162 µM): 0.915
- relative viability (NCI-H2170; first compound 0.1 µM): 1.19
- relative viability (NCI-H1437; first compound 0.001 µM): 0.789
- relative viability (NCI-H1437; first compound 0.003162 µM): 1.25
- relative viability (NCI-H1437; first compound 0.01 µM): 1.13
- relative viability (NCI-H1437; first compound 0.03162 µM): 0.705
- relative viability (NCI-H1437; first compound 0.1 µM): 0.866
- relative viability (NCI-H1355; first compound 0.001 µM): 1.05
- relative viability (NCI-H1355; first compound 0.003162 µM): 1.15
- relative viability (NCI-H1355; first compound 0.01 µM): 1.38
- relative viability (NCI-H1355; first compound 0.03162 µM): 0.909
- relative viability (NCI-H1355; first compound 0.1 µM): 1.09
- relative viability (ChaGo-K-1; first compound 0.001 µM): 1.1
- relative viability (ChaGo-K-1; first compound 0.003162 µM): 1.08
- relative viability (ChaGo-K-1; first compound 0.01 µM): 1.27
- relative viability (ChaGo-K-1; first compound 0.03162 µM): 0.674
- relative viability (ChaGo-K-1; first compound 0.1 µM): 1.08
- relative viability (HOP-62; first compound 0.001 µM): 0.738
- relative viability (HOP-62; first compound 0.003162 µM): 1.22
- relative viability (HOP-62; first compound 0.01 µM): 1.13
- relative viability (HOP-62; first compound 0.03162 µM): 0.796
- relative viability (HOP-62; first compound 0.1 µM): 0.738
- relative viability (NCI-H2126; first compound 0.001 µM): 1.02
- relative viability (NCI-H2126; first compound 0.003162 µM): 1.23
- relative viability (NCI-H2126; first compound 0.01 µM): 1.39
- relative viability (NCI-H2126; first compound 0.03162 µM): 0.966
- relative viability (NCI-H2126; first compound 0.1 µM): 0.943
- relative viability (BEN; first compound 0.001 µM): 0.731
- relative viability (BEN; first compound 0.003162 µM): 0.978
- relative viability (BEN; first compound 0.01 µM): 1.21
- relative viability (BEN; first compound 0.1 µM): 0.971
- relative viability (NCI-H1944; first compound 0.001 µM): 1.18
- relative viability (NCI-H1944; first compound 0.003162 µM): 1.24
- relative viability (NCI-H1944; first compound 0.01 µM): 1.21
- relative viability (NCI-H1944; first compound 0.03162 µM): 1.16
- relative viability (NCI-H1944; first compound 0.1 µM): 0.939
- relative viability (NCI-H647; first compound 0.001 µM): 1.05
- relative viability (NCI-H647; first compound 0.003162 µM): 1.34
- relative viability (NCI-H647; first compound 0.03162 µM): 0.749
- relative viability (NCI-H647; first compound 0.1 µM): 0.716
- relative viability (LOU-NH91; first compound 0.001 µM): 0.763
- relative viability (LOU-NH91; first compound 0.003162 µM): 0.722
- relative viability (LOU-NH91; first compound 0.01 µM): 0.76
- relative viability (LOU-NH91; first compound 0.03162 µM): 0.722
- relative viability (LOU-NH91; first compound 0.1 µM): 0.768
- relative viability (SK-MES-1; first compound 0.003162 µM): 1.09
- relative viability (SK-MES-1; first compound 0.01 µM): 1.06
- relative viability (SK-MES-1; first compound 0.03162 µM): 0.994
- relative viability (SK-MES-1; first compound 0.1 µM): 0.982
- relative viability (NCI-H1993; first compound 0.001 µM): 0.998
- relative viability (NCI-H1993; first compound 0.003162 µM): 0.838
- relative viability (NCI-H1993; first compound 0.01 µM): 0.994
- relative viability (NCI-H1993; first compound 0.03162 µM): 0.762
- relative viability (NCI-H1993; first compound 0.1 µM): 0.887
- relative viability (EKVX; first compound 0.001 µM): 0.812
- relative viability (EKVX; first compound 0.003162 µM): 1.39
- relative viability (EKVX; first compound 0.01 µM): 1.42
- relative viability (EKVX; first compound 0.03162 µM): 0.809
- relative viability (EKVX; first compound 0.1 µM): 1.13
- relative viability (LXF-289; first compound 0.001 µM): 0.806
- relative viability (LXF-289; first compound 0.003162 µM): 0.885
- relative viability (LXF-289; first compound 0.01 µM): 0.923
- relative viability (LXF-289; first compound 0.03162 µM): 0.731
- relative viability (LXF-289; first compound 0.1 µM): 0.765
- relative viability (NCI-H441; first compound 0.001 µM): 0.728
- relative viability (NCI-H441; first compound 0.003162 µM): 0.825
- relative viability (NCI-H441; first compound 0.01 µM): 0.601
- relative viability (NCI-H441; first compound 0.1 µM): 0.652
- relative viability (HCC-827; first compound 0.001 µM): 0.936
- relative viability (HCC-827; first compound 0.003162 µM): 0.954
- relative viability (HCC-827; first compound 0.01 µM): 0.893
- relative viability (HCC-827; first compound 0.1 µM): 0.91
